Data taken from ChEMBL document CHEMBL1137423, “Nanomolar inhibition of the enterobactin biosynthesis enzyme, EntE: synthesis, substituent effects, and additivity” (Bioorg Med Chem Lett, 2006).

Experiments:
[1] = biological target: T1, Enterobactin synthase component E (Escherichia coli K-12, UniProt P10378); assay: Binding affinity to EntE; conditions: read-out: Ki app
T1 sequence (P10378 whole entry): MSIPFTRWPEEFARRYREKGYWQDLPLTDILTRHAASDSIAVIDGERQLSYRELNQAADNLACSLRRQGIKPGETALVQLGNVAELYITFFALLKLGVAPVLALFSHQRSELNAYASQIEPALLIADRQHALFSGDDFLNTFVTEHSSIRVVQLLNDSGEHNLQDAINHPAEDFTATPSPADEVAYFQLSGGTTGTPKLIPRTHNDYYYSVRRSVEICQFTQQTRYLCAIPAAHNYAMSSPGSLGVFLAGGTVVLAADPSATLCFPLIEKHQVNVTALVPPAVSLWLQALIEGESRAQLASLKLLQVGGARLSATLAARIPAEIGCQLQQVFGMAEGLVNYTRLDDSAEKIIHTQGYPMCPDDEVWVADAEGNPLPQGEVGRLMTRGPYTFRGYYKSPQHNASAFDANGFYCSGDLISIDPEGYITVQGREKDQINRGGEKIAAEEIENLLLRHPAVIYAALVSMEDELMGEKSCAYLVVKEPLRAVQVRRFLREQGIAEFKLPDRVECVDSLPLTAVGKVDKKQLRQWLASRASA

[2] = biological target: T2, Enterobactin synthase component E (Escherichia coli K-12) (UniProt P10378); assay: Inhibition of EntE at 0.0006 M
T2 sequence (whole entry): T1 sequence (P10378 whole entry)

[3] = biological target: T1, Enterobactin synthase component E; assay: Binding affinity to EntE corrected to substrate competition

Ki [1] [µM]	inhibition [2] [%]	Ki [3] [µM]	Compound
≥ 1000	< 10	–	CC(=O)NOP(=O)(O)OC[C@H]1O[C@@H](n2cnc3cncnc32)[C@H](O)[C@@H]1O
13	–	–	O=C(NOP(=O)(O)OC[C@H]1O[C@@H](n2cnc3cncnc32)[C@H](O)[C@@H]1O)c1ccccc1
0.037	–	–	O=C(NOP(=O)(O)OC[C@H]1O[C@@H](n2cnc3cncnc32)[C@H](O)[C@@H]1O)c1ccccc1O
0.009	–	0.0045	O=C(NOP(=O)(O)OC[C@H]1O[C@@H](n2cnc3cncnc32)[C@H](O)[C@@H]1O)c1cccc(O)c1O
